Assay results taken from patent US10294202B2, “Pyrrolidinones as herbicides” (FMC Corporation, priority 2013, dated 2019).

Experiments:
[1] = system: giant foxtail; test: Test A pre-/postemergence herbicide test; assay type: in vivo, Setaria faberii
Summary of the method: (§1)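 Planted in loam–sand blend; treated the same day preemergence by directed soil spray, while separately grown plants at one- to two-leaf stage got postemergence spray. Compared visually with untreated controls after approximately 10 days; 100 means complete control.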

[2] = system: wheat; test: Test A pre-/postemergence herbicide test; assay type: in vivo, Triticum aestivum
Summary of the method: as §1

[3] = system: wheat (winter wheat); test: Test C pre-/postemergence herbicide test; assay type: in vivo, Triticum aestivum
Summary of the method: (§2)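 Test compounds, formulated in a surfactant-containing non-phytotoxic solvent blend, are applied to seeded loam/sand soil (preemergence) and to young plants at the 1- to 4-leaf stage in peat-based medium (postemergence). Plants stay 13 to 15 days under greenhouse conditions, then are scored visually relative to controls, 0 = no effect, 100 = complete control.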

[4] = system: galium; test: Test C pre-/postemergence herbicide test; assay type: in vivo, Galium aparine; settings: Preemergence; for Plant response rating (scale of 0 to 100), Galium: 250 g ai/ha
Summary of the method: as §2

[5] = system: foxtail, giant; test: Test C pre-/postemergence herbicide test; assay type: in vivo, Setaria faberii
Summary of the method: as §2

[6] = system: johnsongrass; test: Test C pre-/postemergence herbicide test; assay type: in vivo, Sorghum halepense
Summary of the method: as §2

[7] = system: lambsquarters; test: Test C pre-/postemergence herbicide test; assay type: in vivo, Chenopodium album
Summary of the method: as §2

[8] = system: morningglory; test: Test C pre-/postemergence herbicide test; assay type: in vivo, Ipomoea coccinea
Summary of the method: as §2

[9] = system: pigweed; test: Test C pre-/postemergence herbicide test; assay type: in vivo, Amaranthus retroflexus
Summary of the method: as §2

[10] = system: barnyardgrass; test: Test C pre-/postemergence herbicide test; assay type: in vivo, Echinochloa crus-galli
Description: Seeds of plant species selected from blackgrass (Alopecurus myosuroides), ryegrass, Italian (Italian ryegrass, Lolium multiflorum), wheat (winter wheat, Triticum aestivum), galium (catchweed bedstraw, Galium aparine), corn (Zea mays), crabgrass, large (large crabgrass, Digitaria sanguinalis), foxtail, giant (giant foxtail, Setaria faberii), johnsongrass (Sorghum halepense), lambsquarters (Chenopodium album), morningglory (Ipomoea coccinea), nutsedge, yellow (yellow nutsedge, Cyperus esculentus), pigweed (Amaranthus retroflexus), ragweed (common ragweed, Ambrosia elatior), soybean (Glycine max), barnyardgrass (Echinochloa crus-galli), oilseed rape (Brassica napus), waterhemp (common waterhemp, Amaranthus rudis), kochia (Kochia scoparia), oat, wild (wild oat, Avena fatua), surinam grass (Brachiaria decumbens), foxtail, green (green foxtail, Setaria viridis), goosegrass (Eleusine indica), bromegrass, downy (downy bromegrass, Bromus tectorum), nightshade (eastern black nightshade, Solanum ptycanthum), cocklebur (common cocklebur, Xanthium strumarium), cupgrass, woolly (woolly cupgrass, Eriochloa villosa), bermudagrass (Cynodon dactylon), sunflower, (common oilseed sunflower, Helianthus annuus), Russian thistle (Salsola kali) and velvetleaf (Abutilon theophrasti) were planted into a blend of loam soil and sand and treated preemergence with test chemicals formulated in a non-phytotoxic solvent mixture which included a surfactant. At the same time, plants selected from these crop and weed species and also barley (winter barley, Hordeum vulgare), […]), chickweed (common chickweed, Stellaria media), deadnettle (henbit deadnettle, Lamium amplexicaule), and canarygrass (littleseed canarygrass, Phalaris minor) were planted in pots containing Redi-Earth® planting medium (Scotts Company, 14111 Scottslawn Road, Marysville, Ohio 43041) comprising spaghnum peat moss, vermiculite, wetting agent and starter nutrients and treated with postemergence applications of test chemicals formulated in the same manner. Plants ranged in height from 2 to 18 cm (1- to 4-leaf stage) for postemergence treatments. Treated plants and controls were maintained in a greenhouse for 13 to 15 days, after which time all species were compared to controls and visually evaluated. Plant response ratings, summarized in Table C, are based on a scale of 0 to 100 where 0 is no effect and 100 is complete control. A dash (-) response means no test result.

[11] = Postemergence, 125 g ai/ha, 0 to 100 scale, 0 no effect, 100 complete control
[12] = Postemergence, 500 g ai/ha, 0 to 100 scale (0 no effect, 100 complete control)
[13] = Preemergence, 125 g ai/ha, visual rating on 0 to 100 scale (0 no effect, 100 complete control)
[14] = preemergence, 500 g ai/ha, 0 to 100 scale
[15] = Preemergence, 31 g ai/ha, scale 0 to 100, 0 is no effect and 100 is complete control
[16] = Preemergence, 62 g ai/ha, scale 0 to 100
[17] = Preemergence, 125 g ai/ha, scale 0 to 100 (0 no effect, 100 complete control)
[18] = 31 g ai/ha, scale 0 to 100, 0 is no effect and 100 is complete control
[19] = Postemergence, 125 g ai/ha, visual rating on 0 to 100 scale (0 no effect, 100 complete control), approx. 10 days
[20] = Postemergence, 31 g ai/ha, scale 0 to 100 (0 no effect, 100 complete control)
[21] = Postemergence, 62 g ai/ha, scale 0 (no effect) to 100 (complete control)
[22] = Postemergence, 125 g ai/ha, scale 0 to 100 (0 no effect, 100 complete control)
[23] = Postemergence, 250 g ai/ha, scale 0 to 100 (0 no effect, 100 complete control)
[24] = Preemergence, 62 g ai/ha, scale 0 to 100 (0 no effect, 100 complete control)
[25] = Preemergence, 125 g ai/ha, scale 0 to 100

O=C1NCC(c2ccc(F)c(C(F)(F)F)c2)C1C(=O)Nc1ccccc1C(F)(F)F (racemic) [Compound 78]
30: Plant response rating, Wheat [3, 16]
90: Foxtail, Giant plant response rating [1, 13] | Plant response rating, Foxtail, Giant [1, 14] | Plant response rating (scale of 0 to 100), Wheat ([3]; Preemergence, 250 g ai/ha)
40: Plant response rating, Wheat [2, 11] | Plant response rating, Lambsquarters [7, 16] | Plant response rating, Pigweed [9, 16] | Plant response rating, Pigweed [9, 17] | Plant response rating (scale of 0 to 100), Pigweed ([9]; Preemergence, 250 g ai/ha)
15: Plant response rating, Johnsongrass [6, 17]
85: Plant response rating (scale of 0 to 100), Galium [4] | Foxtail, Giant plant response rating [5, 15] | Plant response rating, Lambsquarters [7, 17] | Plant response rating (scale of 0 to 100), Lambsquarters ([7]; Preemergence, 250 g ai/ha) | Plant response rating, Barnyardgrass [10, 17]
98: Plant response rating (scale of 0 to 100), Foxtail, Giant ([5]; Preemergence, 250 g ai/ha)
95: Plant response rating, Foxtail, Giant [5, 16] | Plant response rating, Foxtail, Giant [5, 17] | Plant response rating (scale of 0 to 100; 0 is no effect, 100 is complete control), Barnyardgrass ([10]; Preemergence, 250 g ai/ha)
0: Wheat plant response rating [2, 13] | Plant response rating, Wheat [2, 14] | Johnsongrass plant response rating [6, 15] | Plant response rating, Johnsongrass [6, 16] | Morningglory plant response rating [8, 15] | Plant response rating, Morningglory [8, 16] | Plant response rating, Morningglory [8, 17] | Plant response rating (scale of 0 to 100), Morningglory ([8]; Preemergence, 250 g ai/ha) | Pigweed plant response rating [9, 15]
50: Plant response rating, Wheat [2, 12] | Galium plant response rating [4, 18] | Plant response rating, Galium ([4]; 62 g ai/ha, scale 0 to 100)
75: Plant response rating, Barnyardgrass [10, 16]
10: Wheat plant response rating [3, 15]
60: Plant response rating, Wheat [3, 17] | Plant response rating, Galium ([4]; 125 g ai/ha, scale 0 to 100 (0 no effect, 100 complete control)) | Plant response rating (scale of 0 to 100), Johnsongrass ([6]; Preemergence, 250 g ai/ha) | Barnyardgrass plant response rating [10, 15]
80: Plant response rating, Foxtail, Giant [1, 11] | Plant response rating, Foxtail, Giant [1, 12]

O=C1NCC(c2cccc(OC(F)F)c2)C1C(=O)Nc1cccc(F)c1F (stereo not drawn) [Compound 324]
10: Plant response rating, Foxtail, Giant [5, 21] | Plant response rating, Johnsongrass [6, 23] | Plant response rating, Morningglory [8, 20] | Plant response rating, Morningglory [8, 22]
90: Plant response rating, Foxtail, Giant [1, 19] | Plant response rating, Foxtail, Giant [1, 12] | Plant response rating, Foxtail, Giant ([1]; Preemergence, 125 g ai/ha, 0 to 100 scale where 0 is no effect and 100 is complete control) | Foxtail, Giant plant response rating ([1]; Preemergence, 500 g ai/ha, visual rating on 0 to 100 scale (0 no effect, 100 complete control)) | Foxtail, Giant plant response rating [5, 15] | Foxtail, Giant plant response rating [5, 24] | Barnyardgrass plant response rating [10, 15]
75: Plant response rating, Foxtail, Giant [5, 22] | Pigweed plant response rating [9, 24]
50: Lambsquarters plant response rating [7, 15]
60: Galium plant response rating ([4]; 62 g ai/ha, scale 0 to 100 (0 no effect, 100 complete control)) | Plant response rating, Foxtail, Giant [5, 23]
35: Plant response rating, Morningglory [8, 25] | Plant response rating, Pigweed [9, 21] | Plant response rating, Barnyardgrass [10, 21]
15: Plant response rating, Morningglory [8, 23]
40: Johnsongrass plant response rating [6, 15]
95: Plant response rating, Foxtail, Giant [5, 25] | Plant response rating (scale of 0 to 100), Foxtail, Giant ([5]; Preemergence, 250 g ai/ha) | Barnyardgrass plant response rating [10, 24] | Plant response rating, Barnyardgrass [10, 17]
65: Plant response rating, Wheat [3, 25] | Johnsongrass plant response rating [6, 24] | Plant response rating, Lambsquarters [7, 23] | Plant response rating, Pigweed [9, 22] | Plant response rating, Barnyardgrass [10, 23]
85: Plant response rating, Galium ([4]; 125 g ai/ha, scale 0 to 100) | Plant response rating (scale of 0 to 100), Galium [4] | Plant response rating (scale of 0 to 100), Johnsongrass ([6]; Preemergence, 250 g ai/ha) | Plant response rating (scale of 0 to 100), Lambsquarters ([7]; Preemergence, 250 g ai/ha)
80: Plant response rating, Wheat [2, 12] | Plant response rating, Johnsongrass [6, 25] | Plant response rating, Lambsquarters [7, 25] | Plant response rating, Pigweed [9, 25]
98: Plant response rating (scale of 0 to 100; 0 is no effect, 100 is complete control), Barnyardgrass ([10]; Preemergence, 250 g ai/ha)
55: Plant response rating, Lambsquarters [7, 21] | Plant response rating (scale of 0 to 100), Morningglory ([8]; Preemergence, 250 g ai/ha) | Plant response rating, Pigweed [9, 23] | Pigweed plant response rating [9, 15] | Plant response rating, Barnyardgrass [10, 22]
0: Plant response rating, Wheat [3, 20] | Plant response rating, Wheat [3, 21] | Plant response rating, Wheat [3, 22] | Plant response rating, Wheat [3, 23] | Galium plant response rating [4, 18] | Plant response rating, Foxtail, Giant [5, 20] | Plant response rating, Johnsongrass [6, 20] | Plant response rating, Johnsongrass [6, 21] | Plant response rating, Johnsongrass [6, 22] | Plant response rating, Lambsquarters [7, 20] | Morningglory plant response rating [8, 15] | Morningglory plant response rating [8, 24] | Plant response rating, Pigweed [9, 20] | Plant response rating, Barnyardgrass [10, 20]
70: Plant response rating, Lambsquarters [7, 22] | Lambsquarters plant response rating [7, 24]
25: Wheat plant response rating [3, 24]
5: Plant response rating, Morningglory [8, 21]
30: Plant response rating, Wheat [2, 19]
